Results from EP4467141A1, “PYRAZOLO-QUINOLINES AS SELECTIVE INHIBITORS OF GENOTOXIC STRESS-INDUCED IKK/NF- KB PATHWAYS FOR CANCER THERAPY” (Max-Delbrück-Centrum für Molekulare Medizin in der …, priority 2023, dated 2024).

Legend:
Experiment in all cases: Kinase panel study
Assay type in all cases: biochemical
Details in all cases: read-out: Percentage of inhibition; for inhibition at 1 µM: 1000nM; for inhibition at 10 µM: 10000nM
CDK5/p35 = target: T1, CDK5/p35 (Homo sapiens, UniProt Q00535)
T1 construct: purchased Thermo Fisher Scientific
T1 sequence (Q00535 whole entry): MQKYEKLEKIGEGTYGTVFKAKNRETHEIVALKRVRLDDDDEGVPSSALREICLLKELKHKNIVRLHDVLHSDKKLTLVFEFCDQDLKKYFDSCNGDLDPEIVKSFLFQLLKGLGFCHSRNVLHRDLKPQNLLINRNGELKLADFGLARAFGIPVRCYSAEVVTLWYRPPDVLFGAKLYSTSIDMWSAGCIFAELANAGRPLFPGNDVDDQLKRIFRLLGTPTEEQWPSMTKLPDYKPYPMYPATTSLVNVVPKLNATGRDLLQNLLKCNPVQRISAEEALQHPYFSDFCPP
T1 sequence (Q15078 whole entry partner): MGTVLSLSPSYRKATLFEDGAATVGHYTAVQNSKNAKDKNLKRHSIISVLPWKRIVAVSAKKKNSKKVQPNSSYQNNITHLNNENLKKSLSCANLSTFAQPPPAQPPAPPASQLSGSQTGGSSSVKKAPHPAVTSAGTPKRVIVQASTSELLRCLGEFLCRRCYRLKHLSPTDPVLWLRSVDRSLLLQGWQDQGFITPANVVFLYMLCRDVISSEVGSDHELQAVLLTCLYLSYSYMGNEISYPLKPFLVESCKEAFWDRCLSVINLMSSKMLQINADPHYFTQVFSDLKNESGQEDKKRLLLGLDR
Procedure, shortened: (§1)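 A commercial kinase profiling service ran the assays according to its ZLyte or Adapta standard protocols. Compound was present at 10 µM or 1 µM, and kinase activity loss was expressed as percent inhibition.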

HIPK4 = target: T2, HIPK4 (Homo sapiens, UniProt Q8NE63)
T2 construct: purchased Thermo Fisher Scientific
T2 sequence (Q8NE63 1-616): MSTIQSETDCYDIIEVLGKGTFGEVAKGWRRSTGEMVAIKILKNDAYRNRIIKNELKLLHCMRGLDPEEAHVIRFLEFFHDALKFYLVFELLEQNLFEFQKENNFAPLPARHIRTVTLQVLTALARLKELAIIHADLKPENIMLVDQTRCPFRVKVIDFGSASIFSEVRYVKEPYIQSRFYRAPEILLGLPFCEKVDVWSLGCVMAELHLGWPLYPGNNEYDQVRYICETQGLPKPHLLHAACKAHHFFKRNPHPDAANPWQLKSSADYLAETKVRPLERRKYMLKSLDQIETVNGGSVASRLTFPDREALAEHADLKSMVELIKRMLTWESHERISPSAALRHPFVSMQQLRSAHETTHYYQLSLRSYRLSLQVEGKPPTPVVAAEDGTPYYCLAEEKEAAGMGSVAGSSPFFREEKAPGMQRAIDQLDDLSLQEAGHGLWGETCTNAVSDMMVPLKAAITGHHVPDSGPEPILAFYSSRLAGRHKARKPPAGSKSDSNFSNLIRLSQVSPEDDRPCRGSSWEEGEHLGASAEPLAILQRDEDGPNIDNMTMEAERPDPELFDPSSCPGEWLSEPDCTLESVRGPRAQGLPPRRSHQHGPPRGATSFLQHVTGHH
Procedure, shortened: as §1

AMPKA2/B1/G1 = target: T3, AMPKA2/B1/G1 (Homo sapiens, UniProt P54646)
T3 construct: purchased Thermo Fisher Scientific
T3 sequence (P54646 whole entry): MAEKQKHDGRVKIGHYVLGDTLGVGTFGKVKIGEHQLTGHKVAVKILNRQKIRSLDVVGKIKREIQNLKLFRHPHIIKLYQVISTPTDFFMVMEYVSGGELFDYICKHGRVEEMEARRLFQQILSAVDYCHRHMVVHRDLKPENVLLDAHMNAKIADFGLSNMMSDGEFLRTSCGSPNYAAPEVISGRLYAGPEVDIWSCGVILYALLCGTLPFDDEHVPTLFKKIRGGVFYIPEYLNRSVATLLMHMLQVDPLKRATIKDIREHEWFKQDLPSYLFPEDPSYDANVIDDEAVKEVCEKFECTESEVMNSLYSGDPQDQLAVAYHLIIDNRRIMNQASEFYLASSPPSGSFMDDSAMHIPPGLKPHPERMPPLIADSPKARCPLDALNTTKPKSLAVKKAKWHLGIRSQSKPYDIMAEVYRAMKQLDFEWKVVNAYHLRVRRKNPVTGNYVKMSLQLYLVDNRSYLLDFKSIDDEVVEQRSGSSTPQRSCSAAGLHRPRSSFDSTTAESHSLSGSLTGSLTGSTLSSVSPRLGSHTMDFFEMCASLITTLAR
T3 sequence (Q9Y478 whole entry partner): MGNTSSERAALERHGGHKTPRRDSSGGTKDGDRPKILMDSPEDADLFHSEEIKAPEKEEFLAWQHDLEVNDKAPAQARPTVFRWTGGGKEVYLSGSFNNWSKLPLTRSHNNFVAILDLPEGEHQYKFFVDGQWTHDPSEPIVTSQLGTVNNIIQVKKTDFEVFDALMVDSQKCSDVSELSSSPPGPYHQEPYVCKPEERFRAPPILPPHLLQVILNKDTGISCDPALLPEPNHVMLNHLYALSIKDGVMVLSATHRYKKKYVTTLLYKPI
T3 sequence (P54619 whole entry partner): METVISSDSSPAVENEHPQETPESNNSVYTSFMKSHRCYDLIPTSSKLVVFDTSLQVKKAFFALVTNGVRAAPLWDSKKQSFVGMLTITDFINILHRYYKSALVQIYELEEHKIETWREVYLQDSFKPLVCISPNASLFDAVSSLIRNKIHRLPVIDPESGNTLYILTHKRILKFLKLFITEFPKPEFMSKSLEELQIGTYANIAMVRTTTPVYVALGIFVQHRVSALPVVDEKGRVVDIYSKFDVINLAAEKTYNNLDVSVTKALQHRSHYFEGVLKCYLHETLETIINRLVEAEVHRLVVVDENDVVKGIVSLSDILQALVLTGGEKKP
Procedure, shortened: as §1

ABL1 F317L = target: T4, ABL1 F317L (Homo sapiens, UniProt P00519, F317L)
T4 construct: purchased Thermo Fisher Scientific
Procedure, shortened: as §1

MST1R (RON) = target: T5, MST1R (RON) (Homo sapiens, UniProt Q04912)
T5 construct: purchased Thermo Fisher Scientific
Procedure, shortened: as §1

AMPK (A2/B1/G2) = target: T6, AMPK (A2/B1/G2) (Homo sapiens, UniProt P54646)
T6 construct: purchased Thermo Fisher Scientific
T6 sequence (P54646 whole entry): as the sequence (P54646 whole entry) above
T6 sequence (Q9Y478 whole entry partner): as the sequence (Q9Y478 whole entry partner) above
T6 sequence (Q9UGJ0 whole entry partner): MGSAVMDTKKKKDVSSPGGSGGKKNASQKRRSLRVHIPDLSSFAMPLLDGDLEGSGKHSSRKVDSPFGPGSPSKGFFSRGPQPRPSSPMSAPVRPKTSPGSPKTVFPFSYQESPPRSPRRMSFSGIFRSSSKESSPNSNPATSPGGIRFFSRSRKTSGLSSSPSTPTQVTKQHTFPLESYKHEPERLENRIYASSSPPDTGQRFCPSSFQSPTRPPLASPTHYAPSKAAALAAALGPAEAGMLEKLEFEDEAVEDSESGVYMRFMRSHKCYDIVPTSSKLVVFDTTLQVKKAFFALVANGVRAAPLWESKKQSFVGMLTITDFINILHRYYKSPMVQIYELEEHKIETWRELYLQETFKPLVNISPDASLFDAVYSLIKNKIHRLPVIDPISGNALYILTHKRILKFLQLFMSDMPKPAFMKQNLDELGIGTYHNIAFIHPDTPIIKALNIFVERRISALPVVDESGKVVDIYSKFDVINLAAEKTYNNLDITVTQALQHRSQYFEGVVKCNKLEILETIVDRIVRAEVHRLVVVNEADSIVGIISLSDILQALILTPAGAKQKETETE
Procedure, shortened: as §1

CDC42 BPG (MRCKG) = target: T7, CDC42 BPG (MRCKG) (Homo sapiens, UniProt Q6DT37)
T7 construct: purchased Thermo Fisher Scientific
T7 sequence (Q6DT37 whole entry): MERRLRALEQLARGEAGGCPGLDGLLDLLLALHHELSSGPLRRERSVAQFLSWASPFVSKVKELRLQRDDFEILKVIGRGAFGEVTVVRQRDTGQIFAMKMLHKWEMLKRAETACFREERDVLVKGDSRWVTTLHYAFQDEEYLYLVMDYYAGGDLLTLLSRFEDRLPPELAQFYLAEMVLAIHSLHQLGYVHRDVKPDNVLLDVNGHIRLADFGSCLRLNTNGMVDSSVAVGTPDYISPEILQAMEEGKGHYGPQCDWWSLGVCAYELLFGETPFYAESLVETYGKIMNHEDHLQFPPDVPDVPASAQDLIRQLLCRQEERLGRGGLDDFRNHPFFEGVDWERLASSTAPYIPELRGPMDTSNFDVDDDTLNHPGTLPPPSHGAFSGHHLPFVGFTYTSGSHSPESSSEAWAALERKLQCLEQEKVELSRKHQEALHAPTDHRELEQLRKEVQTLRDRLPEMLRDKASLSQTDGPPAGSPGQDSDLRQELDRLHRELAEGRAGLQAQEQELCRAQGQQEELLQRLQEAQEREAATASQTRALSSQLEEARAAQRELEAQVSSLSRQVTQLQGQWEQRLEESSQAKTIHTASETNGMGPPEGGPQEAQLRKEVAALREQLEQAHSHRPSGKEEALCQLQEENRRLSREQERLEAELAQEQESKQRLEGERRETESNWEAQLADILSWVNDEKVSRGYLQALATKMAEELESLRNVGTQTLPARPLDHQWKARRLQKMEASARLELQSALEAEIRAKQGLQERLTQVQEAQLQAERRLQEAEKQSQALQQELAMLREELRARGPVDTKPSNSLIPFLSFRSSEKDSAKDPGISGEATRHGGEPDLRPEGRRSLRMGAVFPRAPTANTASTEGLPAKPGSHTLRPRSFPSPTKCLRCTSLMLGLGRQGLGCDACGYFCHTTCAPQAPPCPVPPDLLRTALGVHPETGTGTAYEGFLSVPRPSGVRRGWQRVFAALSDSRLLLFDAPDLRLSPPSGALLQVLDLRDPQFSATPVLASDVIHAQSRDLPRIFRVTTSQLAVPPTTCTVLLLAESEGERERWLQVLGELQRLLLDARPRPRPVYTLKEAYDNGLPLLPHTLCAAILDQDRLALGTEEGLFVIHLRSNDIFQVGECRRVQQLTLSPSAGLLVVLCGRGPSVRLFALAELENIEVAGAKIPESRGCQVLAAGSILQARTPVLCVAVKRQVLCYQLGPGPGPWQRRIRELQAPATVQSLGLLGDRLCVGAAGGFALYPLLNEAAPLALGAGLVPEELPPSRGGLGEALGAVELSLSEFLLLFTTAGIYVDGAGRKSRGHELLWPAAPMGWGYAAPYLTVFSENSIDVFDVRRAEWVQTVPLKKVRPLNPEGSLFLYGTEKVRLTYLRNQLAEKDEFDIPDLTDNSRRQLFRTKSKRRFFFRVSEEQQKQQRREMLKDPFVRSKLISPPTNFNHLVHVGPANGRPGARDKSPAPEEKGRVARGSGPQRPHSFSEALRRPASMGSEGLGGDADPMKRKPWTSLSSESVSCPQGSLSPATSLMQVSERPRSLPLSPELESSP
Procedure, shortened: as §1

BRSK1 (SAD1) = target: T8, BRSK1 (SAD1) (Homo sapiens, UniProt Q8TDC3)
T8 construct: purchased Thermo Fisher Scientific
T8 sequence (Q8TDC3 1-778): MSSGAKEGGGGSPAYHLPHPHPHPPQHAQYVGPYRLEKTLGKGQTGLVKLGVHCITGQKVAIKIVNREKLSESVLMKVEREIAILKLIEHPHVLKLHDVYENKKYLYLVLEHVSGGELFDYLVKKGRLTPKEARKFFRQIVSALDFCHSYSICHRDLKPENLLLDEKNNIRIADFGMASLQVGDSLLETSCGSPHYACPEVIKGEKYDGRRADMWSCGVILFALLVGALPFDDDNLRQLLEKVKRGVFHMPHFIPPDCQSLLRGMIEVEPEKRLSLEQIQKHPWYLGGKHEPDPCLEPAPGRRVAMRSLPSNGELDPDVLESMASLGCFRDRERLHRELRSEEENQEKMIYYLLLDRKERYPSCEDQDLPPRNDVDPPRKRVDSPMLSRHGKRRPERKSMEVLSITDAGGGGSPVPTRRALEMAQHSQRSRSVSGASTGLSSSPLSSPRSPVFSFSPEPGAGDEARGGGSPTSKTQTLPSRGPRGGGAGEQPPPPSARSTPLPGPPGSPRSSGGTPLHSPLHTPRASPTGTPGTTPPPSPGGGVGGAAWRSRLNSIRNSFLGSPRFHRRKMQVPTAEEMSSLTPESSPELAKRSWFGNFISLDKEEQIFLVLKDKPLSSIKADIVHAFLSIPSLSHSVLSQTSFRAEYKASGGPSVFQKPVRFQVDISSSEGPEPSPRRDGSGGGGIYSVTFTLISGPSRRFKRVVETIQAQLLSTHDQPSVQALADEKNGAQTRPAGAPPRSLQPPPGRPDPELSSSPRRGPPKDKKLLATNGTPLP
Procedure, shortened: as §1

RET A883F = target: T9, RET A883F (Homo sapiens, UniProt P07949, A883F)
T9 construct: purchased Thermo Fisher Scientific
Procedure, shortened: as §1

Work on COc1ccc2cc3c(N)nn(C(=O)c4cccc(N(C)C)c4)c3nc2c1 [MW05, (3-Amino-7-methoxypyrazolo[3,4-b]quinolin-1-yl)-[3-(dimethylamino)phenyl]methanone] yielded an inhibition at 1 µM (CDK5/p35) of 5%, an inhibition at 10 µM (CDK5/p35) of 7% and an inhibition at 1 µM (HIPK4) of 12%. For the same molecule, the inhibition at 10 µM (HIPK4) was 8%, the inhibition at 1 µM (AMPKA2/B1/G1) was 5% and the inhibition at 10 µM (AMPKA2/B1/G1) was 0%. For the same molecule, the inhibition at 1 µM (ABL1 F317L) was 6%, the inhibition at 10 µM (ABL1 F317L) was 4% and the inhibition at 1 µM (MST1R (RON)) was -1%. For the same molecule, the inhibition at 10 µM (MST1R (RON)) was -16%, the inhibition at 1 µM (AMPK (A2/B1/G2)) was -12% and the inhibition at 10 µM (AMPK (A2/B1/G2)) was -16%. It also gave an inhibition at 1 µM (CDC42 BPG (MRCKG)) of 0%, an inhibition at 10 µM (CDC42 BPG (MRCKG)) of 0% and an inhibition at 1 µM (BRSK1 (SAD1)) of -1%. For the same molecule, the inhibition at 10 µM (BRSK1 (SAD1)) was -6%, the inhibition at 1 µM (RET A883F) was 7% and the inhibition at 10 µM (RET A883F) was 3%.
For COc1ccc2c(c1OC)c(=O)n1c3ccc(O)cc3c3ccnc2c31 [MW01, 5-Hydroxy-10,11-dimethoxy-9H-benzo[c]indolo[3,2,1-ij][1,5]naphthyridin-9-one], the inhibition at 1 µM (CDK5/p35) was 17%, the inhibition at 10 µM (CDK5/p35) was 14% and the inhibition at 1 µM (HIPK4) was 42%. The inhibition at 10 µM (HIPK4) was 62%, the inhibition at 1 µM (AMPKA2/B1/G1) was 8% and the inhibition at 10 µM (AMPKA2/B1/G1) was 32%. The inhibition at 1 µM (ABL1 F317L) was 8%, the inhibition at 10 µM (ABL1 F317L) was 13% and the inhibition at 1 µM (MST1R (RON)) was 22%. It also gave an inhibition at 10 µM (MST1R (RON)) of 39%, an inhibition at 1 µM (AMPK (A2/B1/G2)) of -12% and an inhibition at 10 µM (AMPK (A2/B1/G2)) of 10%. For the same molecule, the inhibition at 1 µM (CDC42 BPG (MRCKG)) was 1%, the inhibition at 10 µM (CDC42 BPG (MRCKG)) was 5% and the inhibition at 1 µM (BRSK1 (SAD1)) was 0%. For the same molecule, the inhibition at 10 µM (BRSK1 (SAD1)) was 6%, the inhibition at 1 µM (RET A883F) was 10% and the inhibition at 10 µM (RET A883F) was 24%.
